This is an account of results in patent publication US11623008B2, “Excipient compositions for mucoadhesive pharmaceutical compositions including a synergistic combination of amylopectin, pullulan, hyaluronic acid, and xyloglucan” (Professional Compounding Centers of America (PCCA), priority 2014, dated 2023).

Data set [1] concerns EpiOral tissue model (ORL-200), human oral mucosa. Kind of data set: Safety and toxicological profile on human oral mucosa (MTT cell viability). As to conditions: excipient composition at 50%, Triton X-100 at 1%; for mean percent viability: mean of two experiments. Format: cell-based. Here is the method:
This study was conducted to evaluate the safety and toxicological profile of disclosed excipient compositions in comparison to Triton X-100 (positive control) and distilled water (negative control), using a 3D model of the human oral mucosa. Triton X-100 is a non-ionic surfactant, which is not approved for oral use.
Methodology: The materials used in this study include EpiOral™ tissue samples, disclosed excipient composition (Lot: 6481454) at 50% (diluted in distilled water), and Triton X-100 at 1%. The EpiOral™ tissue model (ORL-200) comprises of normal human-derived non-keratinized oral epithelial cells, cultured and differentiated to resemble the native buccal tissue of the human oral mucosa. Following tissue preparation, 40 μL of disclosed excipient composition at 50% and Triton X-100 at 1% were applied onto separate EpiOral tissue samples and left to incubate at 37° C. Incubation intervals were 1, 4.5, and 20 hours. Application of distilled water on an EpiOral tissue served as the negative control. After the allotted exposure time, each tissue was rinsed twice with phosphate buffer saline (PBS) and excess liquid was removed. Afterwards, 300 μL of 3-[4,5-dimethylthiazol-2yl]-2,5-diphenyltetrazolium bromide (MTT) solution was added to the EpiOral tissues and left to incubate for 3 hours. MTT was used as an indicator of cell viability. Succinate dehydrogenase enzymes within the mitochondria of viable cells have the ability to reduce soluble yellow tetrazonium salt of MTT to an insoluble purple formazan derivative. After 3 hours of exposure to MTT, the tissues were immersed in 2 mL of extraction solution, sealed in a plastic bag, and stored at room temperature overnight. The excess liquid was then decanted and the remaining extractant solution was agitated. A 200 μL aliquot of each extract was evaluated using a Molecular Device SpectraMax® M5 Microplate Reader. This device quantifies the absorbance potential of the samples at 570 nm, a wavelength absorbed by reduced MTT. This experiment was repeated two months following initial testing using identical methodology and the Electrolyte Saliva Gel (PCCA Formula #11150), which consists of sodium chloride, potassium chloride, calcium chloride, and a flavor extract in disclosed excipient composition (Lot: 6481454) at 50% (diluted in distilled water).
Results and Discussion: Toxicological profiles for disclosed excipient composition and the positive control, Triton X-100 at 1%, were compared by examining absorbancy potentials of the extracts collected from both experiments. […] Mean percent cell viabilities were calculated for the two experiments and are illustrated in FIG. 3. […]

In data set [2] the test system is EpiVaginal tissue model, human vaginal mucosa. The data set can be described thus: Safety and toxicological profile on human vaginal mucosa (MTT cell viability). The class given is cell-based. The settings on record: Triton X-100 at 1%. Here is the method:
This study was conducted to evaluate the safety and toxicological profile of disclosed excipient compositions in comparison to Triton X-100 (positive control) by employing the EpiVaginal™ tissue model, developed by the MatTek Corporation (Ashland, Mass., USA), which is a highly differentiated 3D model of the human vaginal mucosa. The EpiVaginal™ multi-layered tissue model comprises normal, human-derived vaginal-ectocervical (VEC) epithelial and dendritic cells (DC), cultured and differentiated to resemble the growth and morphological characteristics of the human vaginal mucosa. Triton X-100 is a non-ionic surfactant that can be used as a solubilizer, stabilizer, and emulsifier.
Methodology: Following tissue preparation, within a 6-well plate, 100 μL of disclosed excipient composition at 100% and Triton X-100 at 1% were applied onto separate EpiVaginal tissue samples and left to incubate at 37° C. for 45 minutes to 20 hours. Following incubation, tissues were rinsed twice with Phosphate Buffer Saline (PBS) and excess liquid was removed. A 300 μL of 3-[4,5-dimethylthiazol-2yl]-2,5-diphenyltetrazolium bromide (MTT) solution was then added to the tissues and left to incubate for 3 hours. MTT served as an indicator of cell viability. Succinate dehydrogenase enzymes within the mitochondria of viable cells have the ability to reduce soluble yellow tetrazonium salt of MTT to an insoluble purple formazan derivative. Tissues were then immersed in 2 mL of extraction solution and sealed in a plastic bag to soak overnight at room temperature. Excess liquid was decanted the following day, the remaining extractant solution was agitated, and 200 μL aliquot of each extract was evaluated with a Molecular Device SpectraMax® M5 Microplate Reader. This device quantifies the absorbance potential of the samples at 570 nm, a wavelength absorbed by the formazan derivative.

On to Triton X-100, for which the mean percent viability in data set [1] (1 hour exposure) came to 117%; in data set [1] (4.5 hours exposure), 30%; in data set [1] (20 hours exposure) it was 6%. For the same substance, the “ET50, the time at which percent viability would be 50%” value in data set [1] (estimated from semi-log plot) was 3.2 h. The percent cell viability amounted to 97% in data set [2] (45 minutes exposure) and 26% in data set [2] (2 hours exposure). In data set [2] (estimated from semi-log plot), the “ET50, time when percent cell viability is reduced to 50%” value was 86.4 min.
